From patent US20250034139A1, “AMINE COMPOUNDS HAVING ANTI-INFLAMMATORY, ANTIFUNGAL, ANTIPARASITIC, AND ANTICANCER ACTIVITY” (PHARMA CINQ, LLC, priority 2013, published 2025)
Values after ≈ are worked out from the molar mass of the structure shown.

What was measured:
[1] = tested on: THP-1 cells; assay: Example D: LPS-triggered THP-1 cell death assay, acute/5-hour and chronic/48-hour; format: cell-based, Human; settings: for Viable cell percent change, Chronic/48-hour, Mean: 10 ng/ml LPS, 0.1 μM test compound; for activity relative to AC in the LPS-triggered THP-1 cell death assay, in words: 0.1 μM, 5-hour and 48-hour time points
Experimental: Compounds of the invention were tested at 0.1 μM versus AC in the LPS-triggered THP-1 cell death assay. Both acute/5-hour and chronic/48-hour phases of cell death were assessed. Compounds were screened in batches with DMSO as the negative control and AC as the high activity control.

[2] = tested on: PC3 human prostate cancer cells; assay: Example S: in vitro anticancer screen, PC-3 cells, Wst1; format: cell-based; settings: Homo sapiens, PC-3, approximately 20 hours, Wst1, read-out: PC-3, percent of cancer cell survival relative to vehicle treated cells
Method in brief: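 PC-3 cells, 2×10^4 cells/well, exposed ~20 h to vehicle or compound at 0.4, 0.5 or 2.5 μM as specified per compound. Wst1 dye added for 2 h; absorbance 450 nm (reference 630 nm), triplicates. Values are percent cell survival versus vehicle-treated cells.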

[3] = tested on: PC-3 prostate cancer cells; assay: Example T: sensitisation of PC-3 cells to doxorubicin, oxaliplatin, paclitaxel or vincristine, Wst1; format: cell-based, human; settings: PC-3 cells, 72 hours; for viability at 0.4 µM: compound 0.4 μM alone; for Doxorubicin 3.5 μM: percent cell survival / Oxaliplatin 100 μM: percent cell survival / Paclitaxel 50 μM: percent cell survival / Vincristine 100 nM: percent cell survival: chemotherapy agent alone normalized to 100%
[4] = tested on: Trichophyton rubrum; assay: Example J: Trichophyton rubrum growth inhibition, scoring by eye; format: cell-based; settings: Trichophyton rubrum, 144 h; 6 days at 30° C., tested 6 to 40 μM; read-out: MIC, μM (maximum inhibition concentration, scoring by eye)
Experimental: Trichophyton grown on two agar plates were collected by scraping into 10 ml saline and filtered through 8 μm filters. […] This experiment included some active compounds from previous experiment and added several untested compounds. […] Following table listed the maximum inhibition concentration (MIC) based on scoring by eye. Scrape frozen Trichophyton culture from ATCC vial and suspended in 100 μl PDB, and then plate on a PDA plate. Incubate plate at 30 C for 4 days. The plate was covered almost full. […] Take OD of collected solution at 520 nm and 600 nm: […] Part-II: […] Add 6 μl each of diluted compound solutions per well in triplicates. […] Wrap the plates with […] incubate all plates at 30° C. for 6 days. • Take picture of the plates on KODAK imager with 17 captures of 1.5 sec/capture for total of 25.5 second exposure.

[5] = tested on: 4T1 murine breast cancer cells; assay: Example S: in vitro anticancer screen, 4T1 cells, Wst1; format: cell-based, mouse; settings: Mus musculus, 4T1, 18 h, 18 hr, Wst1; for viability at 1 µM: read-out: 4T1 1 μM, percent of cancer cell survival relative to vehicle treated cells; for viability at 5 µM: read-out: 4T1 5 μM, percent of cancer cell survival relative to vehicle treated cells
Method in brief: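 4T1 cells seeded at 1×10^4/well were exposed to compound at 1 μM or 5 μM for 18 hr after plating. Wst1 tetrazolium dye was then added for about 2 hr and absorbance read at 450 nm (reference 630 nm). Values are percent survival relative to vehicle-treated cells.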

[6] = tested on: Candida albicans strain 3153; assay: Example H: Candida albicans growth inhibition (OD 600 nm); format: cell-based; settings: for MIC: Candida albicans, 3153, 24 hrs at 30° C., YPD, XLfit, read-out: MIC (uM) (99% of inhibition of fungal growth); for IC50: Candida albicans, 3153, read-out: IC50 (uM) (50% inhibition of fungal growth), 24 hrs at 30° C., YPD, XLfit
Method in brief: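 Growth inhibition computed as % versus DMSO control from OD600 after ~24 h at 30° C. Inoculum: washed overnight YPD culture of strain 3153 at 3.5×10^4 CFU/ml in YPD; final compound concentrations 0, 5, 10, 16, 22, 30, 40 μM, duplicate wells.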

[7] = tested on: THP-1 cells; assay: Example C: compound screen, viable THP-1 cell count after 5 hours +/- LPS; format: cell-based, Human; settings: for ability to inactivate pro-inflammatory THP-1 cells, in words (relative to benchmark AC): LPS-treated THP-1 cells
From the text: Background: THP-1 is a human acute myeloid leukemia (AML) cell line that can be induced into a macrophage-like cell with vitamin-D3 (vit-D3). In the macrophage, LPS (lipopolysaccharide; endotoxin) stimulation of toll-like receptor 4 (TLR-4) leads to NF-κB activation and secretion of inflammatory cytokines but also the priming of programmed death pathways through RIP and Caspase 8. The balance of this complex regulatory network is dependent on highly specific kinases, enzymes that require ATP. Disruption of either cytosolic pH or ATP availability/energy level uncouples this control network and the can macrophage shift away from production of inflammatory cytokines towards a programmed death event, which has the net effect of limiting inflammatory damage.

[8] = tested on: imiquimod-induced dermatitis
Experimental: Topical imiquimod (IMQ), a toll-like receptor agonist, has been established as a model of Inflammatory skin diseases including psoriasis and atopic dermatitis. Dermal inflammatory changes and gene expression in mice treated with topical imiquimod mimic human psoriasis and dermatitis (van der Fits et al., 2009; Swindell et al., 2011). The effect of a set of compounds of the invention were tested in a mouse model of imiquimod-induced dermatitis, with topical tacrolimus and dexamethasone as comparators for assessing safety and efficacy relative to standard agents used to treat dermatitis in humans.
Commercial 0.1% tacrolimus ointment (ProTopic™[…]) was also used as an active comparator. Petrolatum containing 10% ethanol was used as a control treatment.
Female Balb/C mice (8 weeks old) were randomized and divided into groups of 5 animals each. Polyethylene collars were affixed to the mice to prevent them from easily scratching their ears. 5% imiquimod was applied to both ears of each mouse (20 microliters per ear) daily for 5 days, and then every other day for the full duration of the study. […] On day 7 after initiation of imiquimod, treatment with topical agents was started. Both ears of each mouse were treated with test ointments, with one compound per mouse.
Ear thickness and PASI assessments (Psoriasis Area and Severity Index, a standard psoriasis scoring system) were recorded twice per week throughout the study. The PASI score comprises the sum of evaluations of swelling, erythema and scaling on scales from 0 to 4; the maximum PASI score is 12, and the minimum, in unaffected skin, is 0).

[9] = Homo sapiens, Wst1, vehicle = 100, read-out: No Chemo: percent cell survival
[10] = compound 0.4 μM + doxorubicin 3.5 μM
[11] = compound 0.4 μM + oxaliplatin 100 μM
[12] = compound 0.4 μM + paclitaxel 50 μM
[13] = compound 0.4 μM + vincristine 100 nM

SMILES	Viable cell percent change, Chronic/48-hour, Mean [1] [%]	viability at 0.4 µM [2] [%]	viability at 0.4 µM [3, 9] [%]	Doxorubicin 3.5 μM: percent cell survival [3, 10] [%]	Oxaliplatin 100 μM: percent cell survival [3, 11] [%]	Paclitaxel 50 μM: percent cell survival [3, 12] [%]	Vincristine 100 nM: percent cell survival [3, 13] [%]	MIC [4] [µM]	viability at 1 µM [5] [%]	viability at 5 µM [5] [%]	MIC [6] [µM]	IC50 [6] [µM]	activity relative to AC in the LPS-triggered THP-1 cell death assay, in words [1]	Reduction in viable THP-1 cell count (percent change) from 0 hours, Mean ± SE ([7]; Compound (0.1 μM), No LPS) [%]	Reduction in viable THP-1 cell count (percent change) from 0 hours, Mean ± SE ([7]; Compound (0.1 μM), Plus LPS) [%]	Reduction in viable THP-1 cell count (percent change) from 0 hours, Mean ± SE ([7]; Compound (1.0 μM), No LPS) [%]	Reduction in viable THP-1 cell count (percent change) from 0 hours, Mean ± SE ([7]; Compound (1.0 μM), Plus LPS) [%]	ability to inactivate pro-inflammatory THP-1 cells, in words (relative to benchmark AC) [7]	also measured
CCCCCCc1ccc(Nc2ccnc3ccccc23)cc1 [AO, N-(4-Hexylphenyl)quinolin-4-amine]	25.19	35	35	80.7	91	93.1	91.1	> 40	28.9	18.6	84.9 (≈ 25.9 µg/mL)	34.7							
CCCCCCNC(=O)c1ccc(Nc2ccnc3ccccc23)cc1 [AQ, N-Hexyl-4-(quinolin-4-ylamino)benzamide]	24.71							> 40	94.8	92.7		41.2							
CCCCCCOc1ccc(Nc2ccnc3ccccc23)c(F)c1 [BL, N-[2-Fluoro-4-(hexyloxy)phenyl]quinolin-4-amine]	32.33	106	106	135.5	120	141.4	111.2	> 40			44.8 (≈ 15.2 µg/mL)	33.5							
COCCCCCCCCNc1ccnc2ccccc12 [CJ, N-(8-Methoxyoctyl)quinolin-4-amine]	15.44	53.7	53.7	18.9	19.7	51.7	16.9		22.6	24.1			more active than AC at the chronic/48-hour time point	−5.53 ± 3.89	−30.15 ± 4.41	−6.99 ± 1.55	−41.62 ± 1.80	higher activity than the active benchmark compound AC	
COc1ccc(OCCCCCCNc2ccnc3ccccc23)cc1 [Compound CX, N-[6-(4-Methoxyphenoxy)hexyl]quinolin-4-amine]	8.50	45.9	45.9	21.7	22.2	48.2	38.1		25.1	20.7			more active than AC at the chronic/48-hour time point	−8.00 ± 1.41	−38.09 ± 0.41	−9.20 ± 3.09	−49.57 ± 2.44	higher activity than the active benchmark compound AC	
c1ccc(Oc2cccc(Nc3ccnc4ccccc34)c2)cc1 [DE, N-(3-Phenoxyphenyl)quinolin-4-amine]	25.65								60.1	28.6									Ear thickness, Mean ± SEM ([8]; imiquimod-treated mice, topical ointment 0.06% active drug (dexamethasone 0.03%, tacrolimus 0.1%)): 0.593 ± 0.016; Body Weight (mean ± SEM), Final ([8]; mouse, in vivo): 20.5 ± 0.5 g; Body Weight (mean ± SEM), Initial ([8]; mouse, in vivo): 20.6 ± 0.5 g; D BW ([8]; mouse, in vivo): -0.1 g; PASI Score, Mean ± SEM ([8]; scale 0-12, topical ointment 0.06% active drug (dexamethasone 0.03%, tacrolimus 0.1%)): 7.250 ± 0.183; viability at 2.5 µM ([2]; 2.5 μM): 42%; viability at 2.5 µM ([3]; Homo sapiens, compound 2.5 μM alone, Wst1, vehicle = 100, read-out: No Chemo: percent cell survival): 42%; Doxorubicin 3.5 μM: percent cell survival ([3]; compound 2.5 μM + doxorubicin 3.5 μM): 69.3%; Oxaliplatin 100 μM: percent cell survival ([3]; compound 2.5 μM + oxaliplatin 100 μM): 84.7%; Paclitaxel 50 μM: percent cell survival ([3]; compound 2.5 μM + paclitaxel 50 μM): 68.6%; Vincristine 100 nM: percent cell survival ([3]; compound 2.5 μM + vincristine 100 nM): 74%
